Earlier results on four compounds are cited in patent publication US20220168203A1, “METHOD FOR PREPARING HAIR TREATMENTS AGENTS WITH ORGANIC C1-C6 ALKOXY-SILANES” (Henkel AG & Co. KGaA, priority 2019, published 2022).

The conditions of the series: 25° C.

Consider `O=S(=O)(O)c1ccc(N=Nc2c(O)ccc3ccccc23)cc1` [Acid Orange 7, 4-[(2-hydroxy-1-naphthyl)azo]benzene sulphonate], for which the solubility in water result is “more than 7 g/L”.
On to `O=[N+]([O-])c1cc([N+](=O)[O-])c2ccc(S(=O)(=O)O)cc2c1O` [Acid Yellow 9, 8-hydroxy-5,7-dinitro-2-naphthalenesulfonic acid], for which the solubility in water entry is “above 40 g/L”.
For `O=C(O)C1=NN(c2ccc(S(=O)(=O)O)cc2)C(=O)C1N=Nc1ccc(S(=O)(=O)O)cc1` (stereo not shown) [Acid Yellow 23, 4,5-dihydro-5-oxo-1-(4-sulfophenyl)-4-((4-sulfophenyl)azo)-1H-pyrazole-3-carboxylic acid], the “solubility in water (in words)” value is recorded as “highly soluble”.
Turning to Acid Yellow 3, the solubility in water was 20 mg/mL.
